The numbers were not newly measured in paper PMC5548701, “Selective targeting of melanoma using N-(2-diethylaminoethyl) 4-[^18F]fluoroethoxy benzamide (4-[^18F]FEBZA): a novel PET imaging probe” (EJNMMI Research, 2017), which cites them from elsewhere.

Series [1] relates to B16F1 tumor. To be noted: cited from earlier work; for intestinal uptake: mice bearing B16F melanoma tumor; for bone uptake: 2 h.
On the set-up of series [2]: method as in PMID 27693672. To be noted: 60–70 min; cited from earlier work.

`CCN(CC)CCNC(=O)c1ccc([18F])cc1` [^18F-DAFBA, N-(2-diethylaminoethyl)-4-[18F]fluorobenzamide]: in series [1] (1 h), the intestinal uptake is 3.04 ± 0.24 %IA/g. In addition, the bone uptake in series [1] is recorded as 0.20 ± 0.06 %IA/g.
Consider `CCN(CC)CCNC(=O)c1ccc(F)nc1` [MEL050], for which the “uptake in mouse brain from microPET imaging” value in series [2] is given as 1.38 ± 0.40 %IA/g. In addition, in series [1] (1 h), the intestinal uptake is listed as 2.1 ± 0.3 %IA/g and the “F-18 uptake in B16F1 tumor” value is given as 8.4 ± 1.5 %IA/g. Moreover, the bone uptake in series [1] is reported as 0.58 ± 0.05 %IA/g.
